Reference: patent publication US20210205638A1, “PARATHYROID HORMONE AND REGENERATION OF DEGENERATIVE DISCS DISEASE” (THE JOHNS HOPKINS UNIVERSITY, priority 2017, published 2021)

How the values were obtained:
[1] = test system: NP cells; assay: iPTH in IFT88-/- and wild-type mice: immunostaining of pSmad2/3, CCN2, ACAN; assay type: in vivo, mouse
Protocol: The 11 month-old PTH1R^+/+ and PTH1R^−/− male mice were randomized into four groups: PTH1R^+/++PTH (1-34), PTH1R^+/++Vehicle, PTH1R^−/−+PTH (1-34) and PTH1R^−/−+Vehicle groups (n=8 per group). The 11 month-olds IFT88^+/+ and IFT88^−/− male mice were randomized into four groups: IFT88^+/++PTH (1-34), IFT88^+/++Vehicle, IFT88^−/−+PTH (1-34) and IFT88^−/−+Vehicle groups (n=8 per group). Mice were subcutaneously injected with either PTH (1-34) or vehicle (1 mM acetic acid in phosphate buffered saline (PBS) with equivalent volume of PTH) daily, 5 days per week, and all mice were sacrificed 4 weeks after treatment with PTH (1-34)/vehicle.
For immunocytochemical staining, we incubated GFP labeled NP cells co-stained with primary antibody to rabbit PTH1R PRB-635P (Covance, 1:100) for 1 h and subsequently stained with secondary antibodies conjugated with fluorescence at room temperature. At the time of euthanasia, we dissected and fixed the lumbar vertebral spine in 10% buffered formalin for 48 h, decalcified them in 10% EDTA (pH 7.4) for 14-21 days and embedded them in paraffin or optimal cutting temperature (OCT) compound (Sakura Finetek). Fourmicrometer-thick coronal-oriented sections of the L1-L6 spine were processed for safranin O and fast green staining. Sections for immunostaining was performed using a standard protocol and incubated with primary antibodies to rabbit ACAN (Abcam, 1:100), CCN2 (Abcam, 1:100), integrin β8 (Abcam, 1:200), pCREB (Abcam, 1:100) and PTH1R PRB-635P (Covance, 1:100), mouse pSmad2/3 (Santa Cruz, 1:100), integrin αvβ6 (Millipore, 1:100), integrin αvβ3 (Bioss, 1:100,), integrin αvβ5 (Bioss, 1:100) at 4° C. overnight. For immunohistochemical staining, a horse radish peroxidase-streptavidin detection system (Dako) was subsequently used to detect the immunoactivity, followed by counterstaining with hematoxylin (Sigma-Aldrich). For immunofluorescent assay, the slides were incubated with secondary antibodies conjugated with fluorescence at room temperature for 1 h while avoiding light. We used isotype-matched controls, such as polyclonal rabbit IgG (R&D Systems, AB-105-C) under the same concentrations and conditions as negative controls. We micro photographed sections to perform histomorphometric measurements on the entire area of the L3-L4 of the spine (Olympus DP71).
Quantitative histomorphometric analysis was conducted in a blinded fashion with Image-Pro Plus Software version 6.0 (Media Cybernetics Inc). IVD histological score were obtained as previously described67. Five randomly selected sections per mice in each group at L3-L4 level were chosen for quantitative histomorphometric analysis. The percentage of pSmad2/3 and pCREB positive cells was obtained by counting the number of positive staining cells to the number of total cells in the NP region. The percentage area of CCN2 and ACAN positive staining was calculated by measuring the positive area to the whole area of the L3-L4 in each group.

[2] = biological target: T1, PTH1R (Mus musculus, UniProt P41593); assay: Primary cilia visualization and co-localization in NP cells; assay type: cell-based
T1 construct: endogenous in cells; host or cells: primary mouse nucleus pulposus (NP) cells isolated from intervertebral discs of 15-day old male mice
T1 sequence (P41593 27-591): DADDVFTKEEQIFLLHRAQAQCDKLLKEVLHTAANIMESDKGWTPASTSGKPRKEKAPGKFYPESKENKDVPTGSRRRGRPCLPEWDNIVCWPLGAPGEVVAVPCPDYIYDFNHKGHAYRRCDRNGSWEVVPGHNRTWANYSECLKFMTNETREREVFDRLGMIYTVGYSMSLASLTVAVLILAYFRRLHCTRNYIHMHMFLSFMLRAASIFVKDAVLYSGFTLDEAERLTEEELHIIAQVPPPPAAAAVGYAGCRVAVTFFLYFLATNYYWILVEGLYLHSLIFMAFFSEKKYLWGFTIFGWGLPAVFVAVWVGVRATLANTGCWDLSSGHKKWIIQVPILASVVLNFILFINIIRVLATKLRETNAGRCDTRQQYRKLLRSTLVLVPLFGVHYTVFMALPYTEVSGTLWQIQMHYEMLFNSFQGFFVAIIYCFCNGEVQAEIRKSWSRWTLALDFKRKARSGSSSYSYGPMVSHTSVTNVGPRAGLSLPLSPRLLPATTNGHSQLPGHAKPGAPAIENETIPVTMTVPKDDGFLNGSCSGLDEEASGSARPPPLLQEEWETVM
Protocol: The localization of PTH signaling components within NP cells was investigated through immunocytochemistry after 48 hours of serum starvation (DMEM, 0.5% FBS, 1% P/S). Cells were treated with PTH (recombinant human PTH, […], Bachem Calif., Inc. King of Prussia, Pa., USA.) or shear stress (1 dyn/cm^2) with times of exposure for 30 minutes, fixed and stained for acetylated α-tubulin of primary cilia, PTH1R (Abcam, 1:100) and pCREP (Abcam, 1:500). Coverslips were mounted with Fluoroshield-DAPI. All cells were imaged using a Zeiss LSM710 META Confocal Laser Scanning microscope fitted with a 63× objective. Region of interest were selected manually using ImageJ software. The intensity profiles along the cilia have been performed by tracing a line across the length of the primary cilia and measuring intensity along this line using ImageJ software. Average intensities in the ciliary region, were measured on at least 30 ciliated cells per condition.

[3] = wild-type mice relative to vehicle mice

## CC[C@H](C)[C@H](NC(=O)[C@H](CCC(=O)O)NC(=O)[C@H](CO)NC(=O)[C@@H](NC(=O)[C@@H](N)CO)C(C)C)C(=O)N[C@@H](CCC(N)=O)C(=O)N[C@@H](CC(C)C)C(=O)N[C@@H](CCSC)C(=O)N[C@@H](Cc1cnc[nH]1)C(=O)N[C@@H](CC(N)=O)C(=O)N[C@@H](CC(C)C)C(=O)NCC(=O)N[C@@H](CCCCN)C(=O)N[C@@H](Cc1cnc[nH]1)C(=O)N[C@@H](CC(C)C)C(=O)N[C@@H](CC(N)=O)C(=O)N[C@@H](CO)C(=O)N[C@@H](CCSC)C(=O)N[C@@H](CCC(=O)O)C(=O)N[C@@H](CCCN=C(N)N)C(=O)N[C@H](C(=O)N[C@@H](CCC(=O)O)C(=O)N[C@@H](Cc1c[nH]c2ccccc12)C(=O)N[C@@H](CC(C)C)C(=O)N[C@@H](CCCN=C(N)N)C(=O)N[C@@H](CCCCN)C(=O)N[C@@H](CCCCN)C(=O)N[C@@H](CC(C)C)C(=O)N[C@@H](CCC(N)=O)C(=O)N[C@@H](CC(=O)O)C(=O)N[C@H](C(=O)N[C@@H](Cc1cnc[nH]1)C(=O)N[C@@H](CC(N)=O)C(=O)N[C@@H](Cc1ccccc1)C(=O)O)C(C)C)C(C)C [PTH (1-34), teriparatide]
[1]; IFT88-/- mice
  PTH effect on level of CCN2: blunted
  PTH effect on level of aggrecan: blunted
  PTH effect on number of pSmad2/3+ NP cells: blunted
[1]; [3]
  level of CCN2: significantly stimulated
  level of aggrecan: significantly stimulated
  number of pSmad2/3+ NP cells: significantly stimulated
[2]
  start of translocation of PTH1R to cilia: 10 min
  translocation of PTH1R to cilia: stimulated translocation of PTH1R to cilia significantly
[2]; co-immunostaining with acetylated tubulin
  pCREB in cilia: increased
[2]; knockdown of pallidin with siRNA
  PTH-enhanced transport of PTH1R to cilia: blocked
